Results as given in publication PMC5362899, “Structural insights into the nucleotide base specificity of P2X receptors” (Scientific Reports, 2017).

Biological target: T1, zfP2X4 (ΔP2X4-C) WT (Danio rerio, UniProt F8W463, N187R/N78K)
T1 construct: EGFP (N); octa-histidine tag (N); made in house; host or cells: Sf9 insect cells
T1 sequence (F8W463 28-365 N78K/N187R limits assumed): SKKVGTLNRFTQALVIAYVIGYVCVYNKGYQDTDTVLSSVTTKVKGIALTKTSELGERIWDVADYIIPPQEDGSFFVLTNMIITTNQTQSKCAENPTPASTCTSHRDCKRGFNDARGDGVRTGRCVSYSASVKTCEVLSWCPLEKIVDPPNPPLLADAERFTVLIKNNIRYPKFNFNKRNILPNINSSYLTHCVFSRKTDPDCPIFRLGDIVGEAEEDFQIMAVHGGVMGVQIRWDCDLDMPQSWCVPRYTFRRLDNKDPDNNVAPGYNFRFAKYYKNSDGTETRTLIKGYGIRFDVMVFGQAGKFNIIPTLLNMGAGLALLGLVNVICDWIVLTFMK
Assay: ATR-FTIR difference spectroscopy, residual nucleotide after washing, zfP2X4 WT
Assay type: binding, zebrafish
Details: 10 μM nucleotide, after 15–30 min washing, P-O stretching bands 1250–800 cm−1
Source text: To further investigate the nucleotide binding specificity of zfP2X4, we applied ligand-binding induced difference Attenuated total reflectance (ATR)-Fourier-transform infrared (FTIR) spectroscopy on the WT and conserved threonine mutants (T189S and T189V) of zfP2X4.
Figure 5 ATR-FTIR spectroscopic analysis of zfP2X4 for the ATP and CTP bindings. (A) The reduction of the ligand binding induced difference spectra in the ΔP2X4-C ^zfWT, ^zfT189S and ^zfT189V mutants around the P-O stretching region (1250–800 cm^−1) after washing treatment for 15–30 min. (B) The residual nucleotides after the washing treatment estimated from the ATR-FTIR analysis in (A).
The nucleotide binding affinity of zfP2X4 was analyzed by reduction of the band intensity after washing treatment (Fig. 5). The reduction of the P-O stretching bands between 1250–800 cm^−1 was monitored for ATP (Fig. 5A). […]
The perfusion-induced difference FTIR spectroscopy was performed as similarly to the previous studies. […] ATR-FTIR spectra of the samples were recorded at 25 °C and 2 cm^−1 resolution using a VERTEX 70 spectrometer (Bruker Optics) equipped with a liquid-nitrogen-cooled MCT detector. […] The obtained difference spectra were normalized based on the absolute absorbance of the amide I band at 1653 cm^−1, which well correlates with the quantities of the proteins on the ATR crystals. […]

| Compound | residual nucleotide binding after washing |
| --- | --- |
| Nc1ncnc2c1ncn2[C@@H]1O[C@H](COP(=O)(O)OP(=O)(O)OP(=O)(O)O)[C@@H](O)[C@H]1O [ATP, Adenosine 5-triphosphate] | ~ 80% |
| Nc1ccn([C@@H]2O[C@H](COP(=O)(O)OP(=O)(O)OP(=O)(O)O)[C@@H](O)[C@H]2O)c(=O)n1 [CTP] | ~ 50% |
